According to ChEMBL document CHEMBL6087456 (J Med Chem, 2025):
Values after ≈ are worked out from the molar mass of the structure shown.

Tests used:
Plasmodium falciparum [1] = assay: Antiparasitic activity against asexual blood stage Plasmodium falciparum 3D7 incubated for 72 hrs by SYBR Green assay; type: functional, organism-based; conditions: 3D7, 72 h
[2] = Kinetic solubility of compound at pH 6.5 measured after 30 mins by nephelometry; type: physicochemical; conditions: buffer, pH 6.5, read-out: Kinetic_solubility
[3] = Ratio of drug concentration in Sprague-Dawley rat brain to plasma at 1 uM measured for 5 to 60 mins by LCMS analysis; type: ADME, cell-free; conditions: time 5-60 min
[4] = Metabolic stability in Sprague-Dawley rat hepatocytes assessed as intrinsic clearance at 0.5 uM measured per 0.5 million cells incubated for 240 mins by tandem quadrupole-Time of Flight MS; type: ADME, cell-based, Hepatocyte; conditions: 4 h
[5] = Oral bioavailability in overnight-fasted male Sprague-Dawley rat at 3 mg/kg measured upto 72 hrs by LCMS analysis; type: ADME, organism-based; conditions: in vivo
[6] = Metabolic stability in human liver microsomes assessed as intrinsic clearance at 0.5 uM incubated for 60 mins in presence of NADPH by tandem quadrupole-Time of Flight MS; type: ADME, Microsome; conditions: 1 h
[7] = Cmax in overnight-fasted male Sprague-Dawley rat at 3 mg/kg, po or 1 mg/kg, iv measured upto 72 hrs by LCMS analysis; type: ADME, organism-based; conditions: in vivo
Albumin = Albumin (Homo sapiens, UniProt P02768); assay: Protein binding to albumin (unknown origin) in ALBUMAX medium; type: ADME; conditions: read-out: PB (converted)
Sequence of Albumin (P02768 whole entry): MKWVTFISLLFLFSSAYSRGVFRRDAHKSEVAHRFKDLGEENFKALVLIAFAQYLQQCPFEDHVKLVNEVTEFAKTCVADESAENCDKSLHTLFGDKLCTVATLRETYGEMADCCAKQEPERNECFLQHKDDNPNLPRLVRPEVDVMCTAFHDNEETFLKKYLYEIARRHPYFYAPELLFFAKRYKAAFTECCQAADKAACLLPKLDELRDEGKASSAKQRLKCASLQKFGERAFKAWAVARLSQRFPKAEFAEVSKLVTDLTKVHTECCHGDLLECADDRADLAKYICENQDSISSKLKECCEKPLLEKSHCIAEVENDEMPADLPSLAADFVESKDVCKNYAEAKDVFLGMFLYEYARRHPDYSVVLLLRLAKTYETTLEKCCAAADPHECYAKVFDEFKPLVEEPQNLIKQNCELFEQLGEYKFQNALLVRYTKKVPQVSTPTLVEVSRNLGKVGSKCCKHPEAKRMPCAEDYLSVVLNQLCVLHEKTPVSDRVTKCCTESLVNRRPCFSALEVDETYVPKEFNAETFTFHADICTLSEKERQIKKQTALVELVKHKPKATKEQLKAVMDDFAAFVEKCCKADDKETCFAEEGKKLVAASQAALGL

[8] = Metabolic stability in human hepatocytes assessed as intrinsic clearance at 0.5 uM measured per 1.5 million cells incubated for 240 mins by tandem quadrupole-Time of Flight MS; type: ADME, cell-based, Hepatocyte; conditions: 4 h
[9] = biological target: Dihydroorotate dehydrogenase (quinone), mitochondrial (Homo sapiens, UniProt Q02127); assay: Inhibition of C-terminal His6-tagged recombinant human DHODH (29 to 395 residues) N-terminally truncated soluble domain extracted from Escherichia coli phage resistant BL21-DE3 using CoQD/DHA/DCIP as substrates
Sequence of Dihydroorotate dehydrogenase (quinone), mitochondrial (Homo sapiens, UniProt Q02127) (Q02127 whole entry, the tested form may be a part): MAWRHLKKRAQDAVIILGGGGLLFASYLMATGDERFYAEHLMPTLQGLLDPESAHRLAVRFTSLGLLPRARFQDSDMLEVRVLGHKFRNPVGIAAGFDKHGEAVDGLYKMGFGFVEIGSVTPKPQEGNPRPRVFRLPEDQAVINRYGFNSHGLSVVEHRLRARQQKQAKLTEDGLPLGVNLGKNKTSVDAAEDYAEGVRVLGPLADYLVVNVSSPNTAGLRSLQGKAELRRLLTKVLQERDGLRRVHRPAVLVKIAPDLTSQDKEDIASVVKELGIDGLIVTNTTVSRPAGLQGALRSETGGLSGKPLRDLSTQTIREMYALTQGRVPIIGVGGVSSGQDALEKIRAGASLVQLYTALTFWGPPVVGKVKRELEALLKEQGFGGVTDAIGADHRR

[10] = Oral absorption in overnight-fasted male Sprague-Dawley rat at 3 mg/kg measured upto 72 hrs by LCMS analysis; type: ADME, organism-based; conditions: in vivo
[11] = Plasma protein binding in rat measured for 6 hrs by rapid equilibrium dialysis; type: ADME, cell-free
[12] = Partition coefficient, log D of compound at pH 7.4 measured after 24 hrs by LCMS analysis; type: physicochemical; conditions: octanol/water, pH 7.4, 24 h
[13] = Volume of distribution at steady state in overnight-fasted male Sprague-Dawley rat at 3 mg/kg, po or 1 mg/kg, iv measured upto 72 hrs by LCMS analysis; type: ADME, organism-based; conditions: in vivo
[14] = Protein binding in human hepatocytes; type: ADME, cell-based, Hepatocyte; conditions: read-out: PB (converted)
[15] = Plasma protein binding in human measured for 6 hrs by rapid equilibrium dialysis; type: ADME, cell-free
[16] = Permeability across apical to basal side in human Caco-2 cells; type: ADME, cell-based
[17] = Cytotoxicity against human HepG2 cells by Cell Titer Glo assay; type: toxicity, cell-based
[18] = Drug excretion in Sprague-Dawley rat urine at 1 mg/kg, iv; type: ADME, organism-based; conditions: read-out: Drug excretion
[19] = Cytotoxicity against human Jurkat cells by Cell Titer Glo assay; type: toxicity, cell-based
Cytochrome P450 2D6 = Cytochrome P450 2D6 (Homo sapiens, UniProt P10635); assay: Inhibition of CYP2D6 in human liver microsomes; type: ADME, Microsome
Sequence of Cytochrome P450 2D6 (P10635 whole entry): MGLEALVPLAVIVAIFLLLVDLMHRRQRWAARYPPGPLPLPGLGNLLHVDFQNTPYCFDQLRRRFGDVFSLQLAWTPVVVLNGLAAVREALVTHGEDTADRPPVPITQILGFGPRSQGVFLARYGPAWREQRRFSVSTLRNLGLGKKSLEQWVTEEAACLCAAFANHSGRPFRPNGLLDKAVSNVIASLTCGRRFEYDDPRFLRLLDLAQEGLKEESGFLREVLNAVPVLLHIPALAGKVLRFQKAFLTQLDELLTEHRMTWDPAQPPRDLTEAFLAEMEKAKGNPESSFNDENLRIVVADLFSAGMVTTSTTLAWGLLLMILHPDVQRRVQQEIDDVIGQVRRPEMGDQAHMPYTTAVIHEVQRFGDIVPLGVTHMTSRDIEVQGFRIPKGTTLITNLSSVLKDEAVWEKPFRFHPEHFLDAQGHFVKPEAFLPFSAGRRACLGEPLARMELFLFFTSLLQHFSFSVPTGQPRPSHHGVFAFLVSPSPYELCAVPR

[20] = Half life in overnight-fasted male Sprague-Dawley rat at 3 mg/kg, po or 1 mg/kg, iv measured upto 72 hrs by LCMS analysis; type: ADME, organism-based; conditions: in vivo
Cytochrome P450 2B6 = biological target: T1, Cytochrome P450 2B6 (Homo sapiens, UniProt P20813); assay: Inhibition of CYP2B6 in human liver microsomes; type: ADME, Microsome
T1 sequence (P20813 whole entry): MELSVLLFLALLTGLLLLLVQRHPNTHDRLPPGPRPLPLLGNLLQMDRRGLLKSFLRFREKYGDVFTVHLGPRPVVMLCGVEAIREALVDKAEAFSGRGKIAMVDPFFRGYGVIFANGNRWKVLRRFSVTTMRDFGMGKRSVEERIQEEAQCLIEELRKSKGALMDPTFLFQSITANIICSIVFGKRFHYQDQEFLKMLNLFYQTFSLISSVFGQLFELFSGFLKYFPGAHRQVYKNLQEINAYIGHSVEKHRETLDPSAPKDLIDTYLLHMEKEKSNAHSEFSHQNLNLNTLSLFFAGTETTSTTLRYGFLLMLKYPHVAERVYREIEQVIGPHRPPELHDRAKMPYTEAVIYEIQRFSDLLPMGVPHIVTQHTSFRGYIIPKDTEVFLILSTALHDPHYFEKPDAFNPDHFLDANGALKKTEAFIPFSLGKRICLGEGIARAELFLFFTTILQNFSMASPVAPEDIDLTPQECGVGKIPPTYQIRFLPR

Cytochrome P450 3A4 = Cytochrome P450 3A4 (Homo sapiens, UniProt P08684); assay: Inhibition of CYP3A4 in human liver microsomes; type: ADME, Microsome
Sequence of Cytochrome P450 3A4 (P08684 whole entry): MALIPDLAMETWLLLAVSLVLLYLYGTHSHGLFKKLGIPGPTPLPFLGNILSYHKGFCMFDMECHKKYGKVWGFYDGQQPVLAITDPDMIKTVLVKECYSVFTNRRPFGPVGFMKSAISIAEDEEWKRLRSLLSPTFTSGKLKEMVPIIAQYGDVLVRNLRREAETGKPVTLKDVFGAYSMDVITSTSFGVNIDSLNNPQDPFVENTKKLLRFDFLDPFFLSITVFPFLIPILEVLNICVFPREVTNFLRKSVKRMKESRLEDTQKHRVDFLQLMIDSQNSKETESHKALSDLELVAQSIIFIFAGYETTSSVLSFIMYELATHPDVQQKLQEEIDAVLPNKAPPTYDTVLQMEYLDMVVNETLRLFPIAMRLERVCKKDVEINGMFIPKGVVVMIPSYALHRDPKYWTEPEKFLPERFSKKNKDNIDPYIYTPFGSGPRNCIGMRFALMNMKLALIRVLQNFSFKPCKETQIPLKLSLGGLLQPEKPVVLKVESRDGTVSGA

Cytochrome P450 1A2 = biological target: T2, Cytochrome P450 1A2 (Homo sapiens, UniProt P05177); assay: Inhibition of CYP1A2 in human liver microsomes; type: ADME, Microsome
T2 sequence (P05177 whole entry): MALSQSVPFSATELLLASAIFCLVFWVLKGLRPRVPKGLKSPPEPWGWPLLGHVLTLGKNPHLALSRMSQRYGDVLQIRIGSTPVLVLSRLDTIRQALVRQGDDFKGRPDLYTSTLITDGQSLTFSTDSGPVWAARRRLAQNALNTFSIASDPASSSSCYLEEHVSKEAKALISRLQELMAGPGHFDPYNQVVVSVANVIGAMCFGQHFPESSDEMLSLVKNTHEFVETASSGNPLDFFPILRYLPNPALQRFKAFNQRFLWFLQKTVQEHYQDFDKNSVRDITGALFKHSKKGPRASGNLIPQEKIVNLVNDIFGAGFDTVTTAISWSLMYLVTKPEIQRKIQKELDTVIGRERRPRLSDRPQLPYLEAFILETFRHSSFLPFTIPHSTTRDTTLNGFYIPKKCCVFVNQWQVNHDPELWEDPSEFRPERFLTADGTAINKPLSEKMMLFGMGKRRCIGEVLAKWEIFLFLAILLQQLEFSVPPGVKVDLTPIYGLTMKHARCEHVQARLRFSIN

Plasmodium falciparum [21] = assay: Antiparasitic activity against ring-stage Plasmodium falciparum D10 transformed with yeast DHODH incubated for 72 hrs by SYBR Green assay; type: functional, organism-based; conditions: D10, 72 h
[22] = Selectivity index, ratio of IC50 for N-terminal His6-tagged recombinant Plasmodium falciparum DHODH (158 to 569 residues) N-terminally truncated soluble domain extracted from Escherichia coli phage resistant BL21-DE3 to IC50 for C-terminal His6-tagged recombinant Plasmodium vivax DHODH (158 to …
[23] = biological target: T3, Dihydroorotate dehydrogenase (quinone), mitochondrial (Plasmodium falciparum (isolate 3D7), UniProt Q08210); assay: Inhibition of N-terminal His6-tagged recombinant Plasmodium falciparum DHODH (158 to 569 residues) N-terminally truncated soluble domain extracted from Escherichia coli phage resistant BL21-DE3 using CoQD/DHA/DCIP as substrates
T3 sequence (Q08210 whole entry): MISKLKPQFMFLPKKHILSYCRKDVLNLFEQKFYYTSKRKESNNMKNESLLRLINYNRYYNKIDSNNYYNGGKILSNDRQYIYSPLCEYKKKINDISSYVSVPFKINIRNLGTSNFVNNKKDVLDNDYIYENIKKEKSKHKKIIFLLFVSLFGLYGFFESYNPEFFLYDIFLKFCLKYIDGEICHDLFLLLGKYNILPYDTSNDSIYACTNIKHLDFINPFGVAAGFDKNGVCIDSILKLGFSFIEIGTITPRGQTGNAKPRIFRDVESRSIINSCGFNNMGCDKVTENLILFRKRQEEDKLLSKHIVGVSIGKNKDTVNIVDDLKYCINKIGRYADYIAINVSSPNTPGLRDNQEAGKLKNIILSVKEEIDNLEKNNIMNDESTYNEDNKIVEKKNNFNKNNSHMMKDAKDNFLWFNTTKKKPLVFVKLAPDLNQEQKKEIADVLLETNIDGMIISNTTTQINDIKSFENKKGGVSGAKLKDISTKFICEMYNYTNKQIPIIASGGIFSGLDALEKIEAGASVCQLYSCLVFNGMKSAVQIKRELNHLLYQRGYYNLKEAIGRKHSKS

Cytochrome P450 2C19 = Cytochrome P450 2C19 (Homo sapiens, UniProt P33261); assay: Inhibition of CYP2C19 in human liver microsomes; type: ADME, Microsome
Sequence of Cytochrome P450 2C19 (P33261 whole entry): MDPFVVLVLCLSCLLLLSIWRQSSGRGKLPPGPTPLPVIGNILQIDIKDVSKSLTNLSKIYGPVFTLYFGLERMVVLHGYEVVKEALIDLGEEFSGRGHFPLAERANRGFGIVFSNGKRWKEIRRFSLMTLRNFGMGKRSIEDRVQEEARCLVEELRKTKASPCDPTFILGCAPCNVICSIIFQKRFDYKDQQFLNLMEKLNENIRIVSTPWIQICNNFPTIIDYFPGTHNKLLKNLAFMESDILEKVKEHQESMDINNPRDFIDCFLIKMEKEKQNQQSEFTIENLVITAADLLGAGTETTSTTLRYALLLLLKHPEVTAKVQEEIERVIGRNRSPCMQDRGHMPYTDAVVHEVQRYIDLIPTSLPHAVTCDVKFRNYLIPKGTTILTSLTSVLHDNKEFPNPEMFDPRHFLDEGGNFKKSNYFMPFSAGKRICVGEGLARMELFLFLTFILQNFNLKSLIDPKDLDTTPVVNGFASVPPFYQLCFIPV

EC50 (Plasmodium falciparum [1])	solubility kinetic at 0.5 h [2]	BPR [3]	F [5]	intrinsic clearance (CLint) [6]	fraction unbound (Albumin)	IC50 [9]	Fa at 72 h [10]	PPB [11]	logD [12]	fraction unbound [14]	PPB [15]	permeability [16]	dose excreted [18]	IC50 (Cytochrome P450 2D6)	IC50 (Cytochrome P450 2B6)	IC50 (Cytochrome P450 3A4)	IC50 (Cytochrome P450 1A2)	Structure (SMILES)	CC50 [17]	CC50 [19]	also measured
0.022 µM	130 µM (≈ 48.9 µg/mL)	0.65	65%	9 µL/min/mg	0.5	> 100 µM	71%	–	–	–	–	–	–	–	–	–	–	CCn1cc(C2CC2)c2c(Cc3ccc(C(F)(F)F)nc3)n(C)nc2c1=O	–	–	CLH [4]: 2.3 µL/min; Cmax [7]: 4.4 µM; CLH [8]: 1.2 µL/min
0.001 µM	40 µM (≈ 17.1 µg/mL)	–	–	< 3 µL/min/mg	0.511	–	67%	89.4%	2.4	0.676	94%	–	–	–	–	–	–	CC[C@@](O)(c1cnc(C(F)(F)F)c(Cl)c1)c1c2ccn(C3CC3)c(=O)c2nn1C	–	–	Vdss [13]: 1.22 L/kg
0.003 µM	20 µM (≈ 9.36 µg/mL)	–	> 100%	< 3 µL/min/mg	0.319	> 30 µM	94%	97.3%	–	0.342	99.1%	Permeable	< 1%	> 20 µM	> 20 µM	> 20 µM	> 20 µM	Cn1nc2c(=O)n(C3CC3)ncc2c1[C@](O)(c1cnc(C(F)(F)F)c(Cl)c1)C(F)(F)F	> 20 µM	> 20 µM	t1/2 [20]: 23 h
0.001 µM	20 µM (≈ 9.34 µg/mL)	0.79	> 63%	< 3 µL/min/mg	0.338	> 30 µM	100%	75.9%	2.3	0.249	68.5%	Permeable	< 1%	> 20 µM	> 20 µM	> 20 µM	> 20 µM	Cn1nc2c(=O)n(C3CC3)ccc2c1[C@](O)(c1cnc(C(F)(F)F)c(Cl)c1)C(F)(F)F	> 20 µM	> 20 µM	IC50 (Cytochrome P450 2C19): 6.7 µM

Structure (SMILES)	EC50 (Plasmodium falciparum [1])	solubility kinetic at 0.5 h [2]	BPR [3]	F [5]	intrinsic clearance (CLint) [6]	fraction unbound (Albumin)	IC50 [9]	Fa at 72 h [10]	PPB [11]	logD [12]	fraction unbound [14]	PPB [15]	permeability [16]	dose excreted [18]	IC50 (Cytochrome P450 2D6)	IC50 (Cytochrome P450 2B6)	IC50 (Cytochrome P450 3A4)	IC50 (Cytochrome P450 1A2)	CC50 [17]	CC50 [19]	also measured
CC[C@@](O)(c1cnc(C(F)(F)F)c(Cl)c1)c1c2cnn(C3CC3)c(=O)c2nn1C	0.003 µM	25 µM (≈ 10.7 µg/mL)	–	80%	< 3 µL/min/mg	0.709	> 30 µM	81%	84.9%	–	–	78.2%	–	< 1%	–	–	–	–	> 20 µM	> 20 µM	EC50 (Plasmodium falciparum [21]): 3.8 µM
CCOC(=O)c1nn(C)c(Cc2ccc(C(F)(F)F)nc2)c1C	0.19 µM	–	–	–	–	–	> 100 µM	–	–	–	–	–	–	–	–	–	–	–	–	–	Ratio IC50 [22]: 4; IC50 [23]: 0.36 µM
